Like-named read-outs stand apart in the source and are kept apart here.
Assays:
hERβ [1] = conditions: cited from earlier work
[2] = tested on: estrogen receptor preparations from rat prostates; experiment: Competitive 3H-estradiol binding, rat prostate cytosol; conditions: for RBA Rat Prostate: Table 2, 3H-estradiol as ligand; for binding affinity to estrogen receptor of rat prostates compared with rat uteri: qualitative comparison prostate ER versus uterus ER
[3] = tested on: estrogen receptor preparations from rat uteri; experiment: Competitive 3H-estradiol binding, rat uterus cytosol; conditions: for RBA Rat Uterus: Table 2, 3H-estradiol as ligand
hERβ [4] = experiment: Relative binding affinity to hERβ (Kuiper et al.); design: species or system human; conditions: quotient of RBA hERβ / hERα
Excerpt: In this case, it is assumed that ERβ predominates in the rat prostates over ERα, and ERα predominates in rat uteri over ERβ.

adult female rats = experiment: Dissociation of action ovary/uterus and pituitary gland: ovulation and uterus weight; format: in vivo, rat
Method: The studies with respect to the action on uterus growth and ovulation (indirect effect by influencing the secretion of pituitary gland hormones) are performed on adult female rats (body weight of 220-250 g). The substances are subcutaneously administered four times on four consecutive days. The first administration is carried out in the metestrus. One day after the last administration, the autopsy is carried out. The number of ovocytes in the tube (effect on the ovulation) as well as the uterus weight are determined.

[5] = tested on: GnRH antagonist-treated animals; experiment: Ovary study, ovary weight in GnRH antagonist (Cetrorelix)-treated juvenile rats; format: in vivo, rat
Method: (§1) The substances were tested in vivo on hypophysectomized juvenile rats. In a modification of this operative method, a GnRH antagonist is administered to the animals. It is examined whether the substance stimulates follicular proliferation (maturation) in the ovary. The ovary weight is the measurement parameter.
(§2) In each case, five animals (body weight 40-50 g) are assigned randomly to the treatment groups. The animals are fed as much as they want with a standard diet (altromin) in Makrolon cages in air-conditioned rooms with a lighting program (10 hours of darkness, 14 hours of light) and are given acidified tap water to drink.
(§3) In both cases, the animals are sacrificed 24 hours after the last administration, and the ovary weight is determined.

[6] = tested on: hypophysectomized juvenile rats; experiment: Ovary study, ovary weight in hypophysectomized juvenile rats; format: in vivo, rat; conditions: 0.5 mg/animal/day s.c. over 4 days, compared with estradiol 0.1 mg/animal/day
Method: as §1, §2, §3

[7] = Table 1, 3H-estradiol as ligand, estradiol = 100

Row | Compound | RBA Rat Prostate [2] | binding affinity to estrogen receptor of rat prostates compared with rat uteri [2] | RBA Rat Uterus [3] | other results
1 | C[C@]12CCC(O)CC1=CC[C@@H]1[C@@H]2CC[C@]2(C)C(O)CC[C@@H]12 (some centres unmarked) [5-Androstene-diol, reference compound] | – | – | – | hERβ RBA* (hERβ [1]): 17; Rat prost. ER(RBA) [2, 7]: 5; prost. ER/uterus ER ([2]; ratio of RBA rat prostate ER / rat uterus ER): 50; Rat uterus ER(RBA) [3, 7]: 0.1; ERβ/ERα (hERβ [4]): 3
2 | C[C@]12CC[C@@H]3c4ccc(O)cc4CC[C@H]3[C@@H]1C[C@@H](O)[C@@H]2O [Estriol] | – | – | – | hERβ RBA* (hERβ [1]; relative binding affinity, estradiol = 100, cited from Kuiper et al.): 21
3 | 9α-(2′,2′-Difluorovinyl)-18a-homo-estra-1,3,5(10)-triene-3,16α-diol [Compound 5] | 6 | higher binding affinity to the estrogen receptor of rat prostates | 0.2 | –
4 | C[C@]12CC[C@]3(C=C(F)F)c4ccc(O)cc4CC[C@H]3[C@@H]1C[C@@H](O)C2 [Compound 4, 9α-(2′,2′-Difluorovinyl)-estra-1,3,5(10)-triene-3,16α-diol] | 4 | higher binding affinity to the estrogen receptor of rat prostates | 0.2 | –
5 | C[C@]12CC[C@@H]3c4ccc(O)cc4CC[C@H]3[C@@H]1CC[C@@H]2O [Estradiol, reference compound] | – | – | – | ED50 of ovulation inhibition and increase in uterus weight (adult female rats; s.c. four times on four consecutive days): 0.004 mg/kg of body weight
6 | C=C[C@]12CC[C@]3(C)[C@@H](F)[C@H](O)C[C@H]3[C@@H]1CCc1cc(O)ccc12 [Compound 2, 17β-Fluoro-9α-vinyl-estra-1,3,5(10)-triene-3,16α-diol] | 200 | higher binding affinity to the estrogen receptor of rat prostates | 2 | action on ovary weight (FIG. 1) ([5]; GnRH antagonist-treated animals, 0.1 and 0.3 mg/animal/day, compared with estradiol 1 mg/animal/day): same action as the dose of 1 mg/animal/day of estradiol; action on ovary weight, low dosages (FIG. 2) ([5]; combination with Cetrorelix, 0.01, 0.03 mg/animal/day): show an ovary action and can eliminate the antagonistic effect of Cetrorelix
7 | C=C[C@]12CC[C@]3(C)C[C@H](O)C[C@H]3[C@@H]1CCc1cc(O)ccc12 [Compound 1, 9α-Vinylestra-1,3,5(10)-triene-3,16α-diol] | 100 | higher binding affinity to the estrogen receptor of rat prostates | 1.2 | effect on ovulation and uterus weight (adult female rats; s.c. on four days, up to a dose of 0.4 mg/kg of body weight): does not exert any effect; increase in ovary weight [6]: comparable increase in ovary weight

From patent US7414043B2, “9-α-substituted estratrienes as selectively active estrogens” (priority 2002, dated 2008)
